Experimental data reported in ChEMBL document CHEMBL1131616, “TROTEC-1: a new high-affinity ligand for labeling of the dopamine transporter” (J Med Chem, 1998).

Tests used:
[1] = target: Sodium-dependent serotonin transporter (Homo sapiens, UniProt P31645); test: The compound was tested in vitro for binding affinity for the serotonin transporter (5-HTT) using competitive binding assay.
[2] = target: Sodium-dependent noradrenaline transporter (Homo sapiens, UniProt P23975); test: The compound was tested in vitro for binding affinity for the norepinephrine transporter (NET) using competitive binding assay.
[3] = target: T1, Sodium-dependent dopamine transporter (Homo sapiens, UniProt Q01959); test: The compound was tested in vitro for high binding affinity for the Dopamine transporter (DAT) using competitive binding assay.
[4] = target: T1, Sodium-dependent dopamine transporter; test: The compound was tested in vitro for low binding affinity for the Dopamine transporter (DAT) using competitive binding assay.

Chain of Sodium-dependent noradrenaline transporter (P23975 whole entry): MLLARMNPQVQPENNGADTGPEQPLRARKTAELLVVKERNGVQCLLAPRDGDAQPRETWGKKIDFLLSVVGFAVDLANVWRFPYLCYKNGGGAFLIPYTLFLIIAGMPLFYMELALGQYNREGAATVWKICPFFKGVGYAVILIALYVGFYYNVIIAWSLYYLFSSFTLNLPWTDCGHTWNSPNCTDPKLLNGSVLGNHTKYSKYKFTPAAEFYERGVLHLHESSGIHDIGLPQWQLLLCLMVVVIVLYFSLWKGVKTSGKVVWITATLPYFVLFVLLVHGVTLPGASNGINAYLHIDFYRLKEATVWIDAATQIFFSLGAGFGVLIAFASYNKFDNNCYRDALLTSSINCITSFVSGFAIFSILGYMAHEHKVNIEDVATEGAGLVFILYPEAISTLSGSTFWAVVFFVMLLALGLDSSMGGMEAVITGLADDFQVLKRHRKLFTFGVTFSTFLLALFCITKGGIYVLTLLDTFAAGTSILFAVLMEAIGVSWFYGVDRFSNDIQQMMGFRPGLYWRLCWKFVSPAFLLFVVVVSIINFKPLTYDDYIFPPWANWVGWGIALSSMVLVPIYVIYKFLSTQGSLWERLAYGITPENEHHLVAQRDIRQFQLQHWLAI
Chain of Sodium-dependent serotonin transporter (P31645 whole entry): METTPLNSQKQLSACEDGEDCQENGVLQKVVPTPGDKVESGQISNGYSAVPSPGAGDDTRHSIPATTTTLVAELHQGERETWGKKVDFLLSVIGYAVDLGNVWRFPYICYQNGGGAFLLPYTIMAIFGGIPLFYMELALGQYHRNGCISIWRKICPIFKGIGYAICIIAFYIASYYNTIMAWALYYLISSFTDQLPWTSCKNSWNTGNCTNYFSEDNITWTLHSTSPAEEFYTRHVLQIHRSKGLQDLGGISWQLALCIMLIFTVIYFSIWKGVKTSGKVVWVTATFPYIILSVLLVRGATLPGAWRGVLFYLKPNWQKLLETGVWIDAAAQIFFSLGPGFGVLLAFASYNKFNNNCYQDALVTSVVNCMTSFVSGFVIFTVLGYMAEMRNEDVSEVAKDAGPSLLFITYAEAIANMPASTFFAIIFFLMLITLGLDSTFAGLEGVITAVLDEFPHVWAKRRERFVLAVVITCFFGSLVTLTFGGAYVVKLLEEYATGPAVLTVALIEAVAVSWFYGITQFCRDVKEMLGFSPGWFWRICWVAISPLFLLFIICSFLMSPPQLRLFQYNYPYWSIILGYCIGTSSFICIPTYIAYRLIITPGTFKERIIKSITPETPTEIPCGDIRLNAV
T1 sequence (Q01959 whole entry): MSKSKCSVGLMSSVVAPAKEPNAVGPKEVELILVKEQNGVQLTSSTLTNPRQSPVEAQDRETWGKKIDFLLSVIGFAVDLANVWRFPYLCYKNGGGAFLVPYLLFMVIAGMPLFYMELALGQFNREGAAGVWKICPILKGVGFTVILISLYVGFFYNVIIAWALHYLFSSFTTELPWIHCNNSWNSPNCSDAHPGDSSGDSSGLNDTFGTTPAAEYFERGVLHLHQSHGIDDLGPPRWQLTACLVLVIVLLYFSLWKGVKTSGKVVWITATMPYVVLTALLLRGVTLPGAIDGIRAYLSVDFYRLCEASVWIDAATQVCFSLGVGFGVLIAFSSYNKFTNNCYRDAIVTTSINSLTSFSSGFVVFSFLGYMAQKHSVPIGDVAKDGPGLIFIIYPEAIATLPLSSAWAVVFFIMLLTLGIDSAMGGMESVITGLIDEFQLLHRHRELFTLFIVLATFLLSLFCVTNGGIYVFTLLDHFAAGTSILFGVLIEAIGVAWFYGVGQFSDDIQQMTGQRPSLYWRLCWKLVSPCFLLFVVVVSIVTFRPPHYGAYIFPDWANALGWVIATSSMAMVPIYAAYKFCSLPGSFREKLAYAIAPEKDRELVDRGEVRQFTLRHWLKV

SMILES	IC50 [1] [nM]	IC50 [2] [nM]	IC50 [3] [nM]	IC50 [4] [nM]
CSCCSCCC(=O)OC[C@@H]1C2CCC(C[C@@H]1c1ccc(F)cc1)N2C (stereo partly specified)	28.5	16.3	0.227	5.69
COC(=O)[C@H]1[C@@H](c2ccc(F)cc2)C[C@H]2CC[C@H]1N2C	759	834	–	–
